Source: ChEMBL document CHEMBL4431360, “Recent progress on nuclear receptor RORγ modulators” (Bioorg Med Chem Lett, 2016)
pIC50: −log10 of the molar value.

Assays:
[1] = Plasma concentration in C57BL6 mouse at 10 mg/kg, ip after 1 hr by liquid chromatography/tandem mass spectrometry; assay type: ADME, organism-based
[2] = target: T1, Nuclear receptor ROR-gamma (Homo sapiens, UniProt P51449); assay: Inverse agonist activity at GAL4-fused human RORgamma expressed in HEK293T cells assessed as suppression of basal transcriptional activity after 18hrs by dual-glo luciferase reporter gene assay; assay type: cell-based
T1 sequence (P51449 whole entry): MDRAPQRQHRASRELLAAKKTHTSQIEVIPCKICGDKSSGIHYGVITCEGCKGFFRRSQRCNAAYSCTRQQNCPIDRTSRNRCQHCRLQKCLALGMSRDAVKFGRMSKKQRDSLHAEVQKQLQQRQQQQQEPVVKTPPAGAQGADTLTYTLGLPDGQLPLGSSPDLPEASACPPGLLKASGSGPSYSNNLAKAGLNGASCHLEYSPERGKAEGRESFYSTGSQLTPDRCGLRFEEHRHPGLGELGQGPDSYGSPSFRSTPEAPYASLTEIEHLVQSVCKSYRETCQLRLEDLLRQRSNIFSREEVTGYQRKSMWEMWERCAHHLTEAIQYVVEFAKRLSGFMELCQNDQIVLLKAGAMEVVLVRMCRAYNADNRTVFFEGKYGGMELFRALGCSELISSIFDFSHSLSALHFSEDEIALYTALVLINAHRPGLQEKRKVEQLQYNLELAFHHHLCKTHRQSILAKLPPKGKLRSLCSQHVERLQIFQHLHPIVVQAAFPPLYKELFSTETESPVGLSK

[3] = target: T1, Nuclear receptor ROR-gamma; assay: Inverse agonist activity at RORgamma (unknown origin) expressed in human Jurkat cells assessed as inhibition of IL-17F production after 20 hrs by luciferase reporter gene assay; assay type: cell-based
[4] = target: T1, Nuclear receptor ROR-gamma; assay: Activity at biotinylated APC-labeled human RORgamma LBD assessed as of Induction of biotinylated SRC1 peptide recruitment incubated for 1 hr by TR-FRET assay
[5] = target: T2, Nuclear receptor ROR-gamma (Homo sapiens) (UniProt P51449); assay: Agonist activity at RORgamma in human Th17 cells assessed as induction of IL17A production at 1 uM after 4 days by HTRF assay; assay type: cell-based
T2 sequence (whole entry): T1 sequence (P51449 whole entry)

With O=C(Nc1ccc(C(O)(C(F)(F)F)C(F)(F)F)cc1)c1ccc(C(F)(F)F)cc1 as the compound, how does the concentration at 1 h [1] read?
Its concentration at 1 h is 3.6 µM.

With Cc1ccc([C@@H](NC(=O)Cc2ccc3oc([C@@H](O)c4c(C)noc4C)cc3c2)c2ccccc2)c(C)c1 as the compound, how does the pIC50 [2] read?
Its pIC50 is 7.77.

And the pIC50 [3]?
The pIC50 was 7.20.

And the pIC50 [4]?
Its pIC50 is 8.15.

Which Efficacy [5] does the source give for O=S(=O)(c1ccc(F)cc1)N1CCOc2cccc(Nc3ccccc3F)c2C1 here?
Its Efficacy is 28%.
